This assay concerns Cryptosporidium parvum (CP). Nature of the assay: Cell culture model of Cryptosporidium parvum infection in HCT-8 cells, real-time qRT-PCR. As to conditions: for inhibition at 0.056 µM: HCT-8, @0.056 uM. It is filed as cell-based. Here is the method: Fresh oocysts of CP (Iowa strain) were purchased from Bunch Grass Farm (Deary, Id.). Oocysts were further purified by a Percoll-based gradient centrifugation method and surface sterilized with 10% bleach for 7 min on ice, followed by washes with phosphate-buffered saline (PBS). An ileocecal colorectal adenocarcinoma cell line (HCT-8, ATCC #CCL-244) was used to host the growth of CP in vitro. One day before the inoculation, HCT-8 cells were seeded in 96-well plates (2.5×10^4/well) containing RPMI 1640 medium supplied with 10% fetal bovine serum (200 μL medium/well in all experiments) and allowed to grow overnight at 37° C. under 5% CO2 atmosphere until they reached ˜90% confluence. For drug testing, host cells were infected with 1.5×10^4 oocysts per well (ratio ˜1:3). After inoculation, parasite oocysts were allowed to undergo excystation and invasion into host cells for 3 h at 37° C. Free parasites and oocyst walls in the medium were removed from the plates by an exchange of the culture medium. Drugs at specified concentrations were added into the culture at this time point (immediately after the medium exchange). Parasite-infected cells were then incubated at 37° C. for additional 41 h (total 44 h infection time). At least two independent experiments were conducted for every experimental condition, each including two replicates drugs and eight replicates for negative controls.
Plates containing HCT-8 cells infected with CP for 44 h were first centrifuged for 10 min at 1000×g to ensure that free merozoites in the medium were firmly settled on the bottom of the wells. Medium was removed, followed by two gentle washes with PBS. For extracting total RNA, 200 μL of ice-cold Bio-Rad iScript qRT-PCR sample preparation reagent (lysis buffer) (Bio-Rad Laboratories, Hercules, Calif.) was added into each well. Plates were sealed with heat sealing films and subjected to vortex for 20 min. Plates were then incubated at 75° C. for 15 min, followed by centrifugation (5 min, 2000×g) to settle down cell debris. Supernatants were used immediately in subsequent qRT-PCR reactions or the plates were stored at −80° C. until use.
The levels of 18S rRNA transcripts from CP and host cells (referred to as Cp18S and Hs18S) were detected by real-time qRT-PCR method using qScrip™ one-step SYBR green qRT-PCR kit (Quanta Biosciences, Gaithersburg, Md.). Cell lysates prepared as described above were diluted by 100 and 2000 folds for detecting Cp18S and Hs18S transcripts, respectively. Reactions were performed in hard-shell 384-well skirted PCR plates (Bio-Rad Laboratories, Hercules, Calif.) (10 μL/well) containing 3 μL diluted cell lysate, 5 μL one-step SYBR green master mix, 0.2 μl RT master mix and the following primers: Cp18S-1011F and Cp18S-1185R primer pair for Cp18S rRNA, and Hs18S-1F and Hs18S-1R primer pair for Hs18S rRNA. Hs18S levels were used as controls and for normalization.
Real-time qRT-PCR reactions were performed by a Bio-Rad CFX384 Touch Real-Time PCR Detection System. The reactions started with synthesizing cDNA at 50° C. for 20 min, followed by 5 min at 95° C. to denature RNA-cDNA hybrids and deactivate reverse transcriptase, and 40 two-temperature thermal cycles of PCR amplification at 95° C., 10 sec and 58° C., 30 sec. At the end of PCR amplification, melting curve analysis was performed between 65° C. to 95° C. At least 2 technical replicates were included in qRT-PCR reactions for each sample.
The % inhibition (% inh @ (μM)) was calculated using a standard curve.
On the technique in general: Real-time PCR tracks product formation cycle by cycle.

Setting [1] is: Cryptosporidium parvum, 44 h, CP in HCT-8 cells, 44 h infection, 50% reduction of parasite growth vs control, NA: not active, read-out: MIC50.
Where [2] appears, read: CP in HCT-8 cells, 44 h infection, 50% reduction of parasite growth vs control, NA: not active, read-out: MIC50.

Each structure is given as a SMILES string. ≈ marks a conversion by molar mass, not a printed value. Where two headings read alike, the source gives them in different places.

Regarding `CC(C(=O)NCCN(CCO)CCO)c1ccc(Oc2nc3ccc(Cl)cc3s2)cc1` (centres unmarked) [NZ-557, N-{2-[bis(2-hydroxyethyl)amino]ethyl}-2-{4-[(6-chloro-1,3-benzothiazol-2-yl)oxy]phenyl}propanamide], the MIC50 (commonly an inhibitory concentration at the 50% level, which refers to growth in some studies and to a panel of isolates in others) under setting [1] lay within 0.112 to 0.225 µM (≈ 0.052 to 0.104 µg/mL).

With `CC(C(=O)NCCN(C)CCO)c1ccc(Oc2nc3ccc(Cl)cc3s2)cc1` (centres unmarked) [NZ-556, 2-{4-[(6-chloro-1,3-benzothiazol-2-yl)oxy]phenyl}-N-{2-[(2-hydroxyethyl)(methyl)amino]ethyl}propanamide], the MIC50 under setting [1] was about 0.056 µM (≈ 0.0243 µg/mL). For the same compound, under “Cryptosporidium parvum”, the inhibition at 0.056 µM was 64%.

Take `CC(C(=O)NCCN)c1ccc(Oc2nc3ccc(Cl)cc3s2)cc1` (centres unmarked) [NZ-518, N-(2-aminoethyl)-2-{4-([6-chloro-1,3-benzothiazol-2-yl)oxy]phenyl}propanamide]: the MIC50 under setting [1] is over 0.45 µM.

As for `O=C(Nc1ccc(Oc2nc3ccc(Cl)cc3s2)cc1)N1CCS(=O)(=O)CC1` [NZ-573, N-{4-[(6-chloro-1,3-benzothiazol-2-yl)oxy]phenyl}-1,1-dioxo-1λ^6,4-thiomorpholine-4-carboxamide], the MIC50 under setting [1] was about 0.5 µM (≈ 0.219 µg/mL).

Turning to `O=C(N1CCOCC1)C1(c2ccc(Oc3nc4ccc(Cl)cc4s3)cc2)CC1` [NZ-561, 6-chloro-2-{4-[1-(morpholine-4-carbonyl)cyclopropyl]phenoxy}-1,3-benzothiazole], under setting [1], the MIC50 came out at 0.04 µM (≈ 0.0166 µg/mL).

With `CC(C(=O)N1CCN(C)CC1)c1ccc(Oc2nc3ccc(Cl)cc3s2)cc1` (single isomer, unassigned) [NZ-366 (peak 1), 2-{4-[(6-chloro-1,3-benzothiazol-2-yl)oxy]phenyl}-1-(4-methylpiperazin-1-yl)propan-1-one], the MIC50 under setting [1] is under 0.05 µM. Further, the inhibition at 0.05 µM (Cryptosporidium parvum, HCT-8, @0.05 uM, read-out: % inh @) worked out at 85%.

Turning to `CC(C(=O)N(C)C)c1ccc(Oc2cnc3cc(Cl)ccc3n2)cc1` (centres unmarked) [NZ-530, 2-{4-([6-chloroquinoxalin-2-yl)oxy]phenyl}-N,N-dimethylpropanamide], the MIC50 under setting [1] was about 0.225 µM (≈ 0.0801 µg/mL).

For `CC(C(=O)N(C)CCN(C)C)c1ccc(Oc2nc3ccc(Cl)cc3s2)cc1` (centres unmarked) [NZ-547, 2-{4-[(6-chloro-1,3-benzothiazol-2-yl)oxy]phenyl}-N-[2-(dimethylamino)ethyl]-N-methylpropanamide], under setting [1], the MIC50 was under 0.056 µM. Under “Cryptosporidium parvum”, this compound registered an inhibition at 0.056 µM of 96%.

As to `O=C(N1CCS(=O)(=O)CC1)C1(c2ccc(Oc3nc4ccc(Cl)cc4s3)cc2)CC1` [NZ-563, 4-(1-{4-[(6-chloro-1,3-benzothiazol-2-yl)oxy]phenyl}cyclopropanecarbonyl)-1λ^6,4-thiomorpholine-1,1-dione], the MIC50 under setting [1] is 0.018 µM (≈ 0.00833 µg/mL).

As for `CNC(=O)C(C)c1ccc(Oc2nc3ccc(Cl)cc3s2)cc1` (single isomer, unassigned) [NZ-369 (peak 2), 2-{4-[(6-chloro-1,3-benzothiazol-2-yl)oxy]phenyl}-N-methylpropanamide], the “MIC50” value (CP in HCT-8 cells, 44 h infection, 50% reduction of parasite growth vs control, NA: not active) was about 0.02 µM (≈ 0.00694 µg/mL).

As to `CC(C(=O)N1CCOCC1CO)c1ccc(Oc2nc3ccc(Cl)cc3s2)cc1` (centres unmarked) [NZ-555, 2-{4-[(6-chloro-1,3-benzothiazol-2-yl)oxy]phenyl}-1-[3-(hydroxymethyl)morpholin-4-yl]propan-1-one], the MIC50 under setting [1] was under 0.056 µM. In addition, the inhibition at 0.056 µM (Cryptosporidium parvum) was determined as 79%.

For the compound `CC(C(=O)N1CCOCC1)c1ccc(Oc2cnc3cc(Cl)ccc3n2)cc1` (centres unmarked) [NZ-529, 2-{4-[(6-chloroquinoxalin-2-yl)oxy]phenyl}-1-(morpholin-4-yl)propan-1-one], the MIC50 under setting [1] was over 0.45 µM.

Compound `C[C@@H](Oc1ccc(Oc2nc3ccc([N+](=O)[O-])cc3s2)cc1)C(=O)O` [NZ-261, (2R)-2-{4-[(6-nitro-1,3-benzothiazol-2-yl)oxy]phenoxy}propanoic acid] showed an MIC50 (Cryptosporidium parvum, 44 h) of about 10 µM (≈ 3.6 µg/mL). The inhibition at 10 µM (Cryptosporidium parvum, HCT-8, read-out: % inh @ (μM)) amounted to 60%.

As to `O=C(NC1COC1)C1(c2ccc(Oc3nc4ccc(Cl)cc4s3)cc2)CC1` [NZ-564, 1-{4-[(6-chloro-1,3-benzothiazol-2-yl)oxy]phenyl}-N-(oxetan-3-yl)cyclopropane-1-carboxamide], the MIC50 under setting [1] was 0.054 µM (≈ 0.0216 µg/mL).

Regarding `O=C(Cc1ccc(Oc2nc3ccc(Cl)cc3s2)cc1)NC1COC1` [NZ-577, 2-{4-[(6-chloro-1,3-benzothiazol-2-yl)oxy]phenyl}-N-(oxetan-3-yl)acetamide], the MIC50 under setting [1] is about 0.25 µM (≈ 0.0937 µg/mL).

In the case of `CNC(=O)C(C)c1ccc(Oc2nc3ccc(Cl)cc3s2)cc1` (single isomer, unassigned) [NZ-369 (peak 1), 2-{4-[(6-chloro-1,3-benzothiazol-2-yl)oxy]phenyl}-N-methylpropanamide], the MIC50 under setting [2] was 0.07 µM (≈ 0.0243 µg/mL).

Take `CN1CCN(C(=O)COc2ccc(Oc3cnc4cc(Cl)ccc4n3)cc2)CC1` [NZ-278, 2-{4-[(6-chloroquinoxalin-2-yl)oxy]phenoxy}-1-(4-methylpiperazin-1-yl)ethan-1-one]: the MIC50 (Cryptosporidium parvum, 44 h) was about 0.25 µM (≈ 0.103 µg/mL).

On to `CN1CCN(C(=O)C2(c3ccc(Oc4nc5ccc(Cl)cc5s4)cc3)CC2)CC1` [NZ-522, 6-chloro-2-{4-[1-(4-methylpiperazine-1-carbonyl)cyclopropyl]phenoxy}-1,3-benzothiazole], for which the MIC50 under setting [1] lay within 0.022 to 0.045 µM (≈ 0.00942 to 0.0193 µg/mL).

As to `COCC(COC)NC(=O)C(C)c1ccc(Oc2nc3ccc(Cl)cc3s2)cc1` (centres unmarked) [NZ-542, 2-{4-[(6-chloro-1,3-benzothiazol-2-yl)oxy]phenyl}-N-(1,3-dimethoxypropan-2-yl)propanamide], under setting [1], the MIC50 came out at 0.112 µM (≈ 0.0487 µg/mL).

On to `O=C(Cc1ccc(Oc2nc3ccc(Cl)cc3s2)cc1)N1CCOCC1` [NZ-575, 2-{4-[(6-chloro-1,3-benzothiazol-2-yl)oxy]phenyl}-1-(morpholin-4-yl)ethan-1-one], for which the MIC50 under setting [1] was about 1 µM (≈ 0.389 µg/mL).

As for `CNC(=O)C1(c2ccc(Oc3nc4ccc(Cl)cc4s3)cc2)CC1` [NZ-521, 1-{4-[(6-chloro-1,3-benzothiazol-2-yl)oxy]phenyl}-N-methylcyclopropane-1-carboxamide], the MIC50 under setting [1] turned out to be 0.25 µM (≈ 0.0897 µg/mL).

In the case of `CC(C(=O)N1CCN(C)CC1)c1ccc(Oc2nc3ccc(Cl)cc3s2)cc1` (single isomer, unassigned) [NZ-366 (peak 2), 2-{4-[(6-chloro-1,3-benzothiazol-2-yl)oxy]phenyl}-1-(4-methylpiperazin-1-yl)propan-1-one], the “% inh @ (μM)” value (@0.05 uM) was determined as 81% @0.05 uM. The MIC50 under setting [2] was under 0.05 µM.

On to `CC(C(=O)N1CCOC(CO)C1)c1ccc(Oc2nc3ccc(Cl)cc3s2)cc1` (centres unmarked) [NZ-558, 2-{4-[(6-chloro-1,3-benzothiazol-2-yl)oxy]phenyl}-1-[2-(hydroxymethyl)morpholin-4-yl]propan-1-one], for which the MIC50 under setting [1] is about 0.056 µM (≈ 0.0242 µg/mL).

On to `CC(C(=O)N1CCOC(C(N)=O)C1)c1ccc(Oc2nc3ccc(Cl)cc3s2)cc1` (centres unmarked) [NZ-554, 4-(2-{4-[(6-chloro-1,3-benzothiazol-2-yl)oxy]phenyl}propanoyl)morpholine-2-carboxamide], for which the MIC50 under setting [1] was 0.056 to 0.112 µM (≈ 0.025 to 0.0499 µg/mL).

Take `O=C(Nc1ccc(Oc2nc3ccc(Cl)cc3s2)cc1)N1CCOCC1` [NZ-572, N-{4-[(6-chloro-1,3-benzothiazol-2-yl)oxy]phenyl}morpholine-4-carboxamide]: the MIC50 under setting [1] was about 0.5 µM (≈ 0.195 µg/mL).

`CNCCNC(=O)C(C)c1ccc(Oc2nc3ccc(Cl)cc3s2)cc1` (centres unmarked) [NZ-548, 2-{4-[(6-chloro-1,3-benzothiazol-2-yl)oxy]phenyl}-N-[2-(methylamino)ethyl]propanamide]: the MIC50 under setting [1] lay in the range of 0.112 to 0.225 µM (≈ 0.0437 to 0.0877 µg/mL). The inhibition at 0.112 µM (Cryptosporidium parvum, HCT-8, @0.112 uM) came to 45%.

On to `CC(C(=O)NC1CNC(=O)C1)c1ccc(Oc2nc3ccc(Cl)cc3s2)cc1` (centres unmarked) [NZ-562, 2-{4-[(6-chloro-1,3-benzothiazol-2-yl)oxy]phenyl}-N-(5-oxopyrrolidin-3-yl)propanamide], for which, under setting [1], the MIC50 was about 0.45 µM (≈ 0.187 µg/mL).

On to `CC(C(=O)NCCN(C)C)c1ccc(Oc2cnc3cc(Cl)ccc3n2)cc1` (centres unmarked) [NZ-535], for which the MIC50 under setting [1] lay within 0.225 to 0.45 µM (≈ 0.0898 to 0.18 µg/mL).

The values above are taken from patent US11083717B2, “Compositions and methods for drug sensitization of parasites” (The Texas A&M University System, priority 2015, dated 2021).
